# Laboratory results taken from patent US12564605B2, “Plant based compositions and methods for the delivery of magnesium” (Standard Process, Inc., priority 2018, dated 2026).
# System: recognition learning and memory retrieval
# Experiment: Novel Object Recognition (NOR) test
# Format: in vivo, Sprague Dawley rats
# Details: rats on low Mg diet; in comparison to Magtein and placebo control; FIG. 7
# Description: Male Sprague Dawley rats (150-175 grams on arrival) from Envigo (Indianapolis, IN) were used in the study. Upon receipt, rats were assigned unique identification numbers and were group housed with 2-3 rats per cage in ventilated cages with micro-isolator filter tops. All rats were examined and weighed prior to initiation of the study to assure adequate health and suitability. During the course of the study, 12/12 light/dark cycles will be maintained. The room temperature will be maintained between 20° C. and 23° C. with a relative humidity maintained around 50%.
# On the day of arrival to the research facility, animals (except for the normal Mg diet group, N=15) were placed on LabDiet 5008, a diet that is deficient in Mg containing 0.20% magnesium. […]
# The Novel Object Recognition (NOR) is a test of recognition learning and memory retrieval, which takes advantage of the spontaneous preference of rodents to investigate a novel object compared to a familiar one. […] All training and testing trials were video-taped and scored by an observer blind to treatments.
# On days 1 and 2, rats were allowed to freely explore the arena (no objects inside) for a 5-minute habituation period. […] One hour later, the rats were again placed into the test arena in the presence of one familiar object and one novel object (Object A and Object B), and the time spent exploring both objects is recorded. […]
structure (smiles),measurement,value
O=C([O-])CC(O)(CC(=O)[O-])C(=O)[O-].O=C([O-])CC(O)(CC(=O)[O-])C(=O)[O-].[Mg+2].[Mg+2].[Mg+2] [Mg citrate],"Cognitive function (Novel Object Recognition test, Recognition Index)",trend toward improvement in cognitive function
